In EP4567035A1, “NOVEL COMPOUND AS HYPOXIA-INDUCIBLE FACTOR 1(HIF-1) INHIBITOR OR VASCULAR ENDOTHELIAL GROWTH FACTOR (VEGF) INHIBITOR, AND PHARMACEUTICAL COMPOSITION COMPRISING SAME” (Nextgen Bioscience Co., Ltd., priority 2022, dated 2024):
Structures can show the parent of a compound that is named as a salt. Where two headings read alike, the source gives them in different places.

Biological target: T1, HIF-1α (Homo sapiens, UniProt Q16665)
T1 construct: endogenous in cells; host or cells: ARPE-19 (ATCC CRL-2302)
T1 sequence (Q16665 whole entry): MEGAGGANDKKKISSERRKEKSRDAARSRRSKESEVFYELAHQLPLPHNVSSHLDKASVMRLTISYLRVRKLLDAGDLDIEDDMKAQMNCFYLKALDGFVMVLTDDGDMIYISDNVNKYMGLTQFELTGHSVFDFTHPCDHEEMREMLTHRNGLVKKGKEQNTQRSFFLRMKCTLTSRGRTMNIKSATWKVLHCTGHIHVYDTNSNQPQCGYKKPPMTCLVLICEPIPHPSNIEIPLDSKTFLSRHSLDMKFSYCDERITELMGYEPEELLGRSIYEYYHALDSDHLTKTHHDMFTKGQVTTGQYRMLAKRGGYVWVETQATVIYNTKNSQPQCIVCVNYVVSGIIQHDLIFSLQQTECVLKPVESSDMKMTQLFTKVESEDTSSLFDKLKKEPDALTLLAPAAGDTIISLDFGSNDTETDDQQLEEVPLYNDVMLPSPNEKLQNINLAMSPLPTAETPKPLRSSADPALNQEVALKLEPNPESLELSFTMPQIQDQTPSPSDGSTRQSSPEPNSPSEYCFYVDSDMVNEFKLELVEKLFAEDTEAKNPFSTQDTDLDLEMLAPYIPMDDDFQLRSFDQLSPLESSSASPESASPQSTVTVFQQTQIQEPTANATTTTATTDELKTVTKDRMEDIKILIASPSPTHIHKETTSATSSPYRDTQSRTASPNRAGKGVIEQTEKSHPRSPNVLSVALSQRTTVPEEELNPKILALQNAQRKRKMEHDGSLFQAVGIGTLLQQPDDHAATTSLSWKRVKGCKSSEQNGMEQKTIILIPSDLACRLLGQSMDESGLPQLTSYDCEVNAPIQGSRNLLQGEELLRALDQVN
Assay: Analysis of HIF-1α protein expression (Western blot) in ARPE-19 cells under mixed hypoxic condition
Type: cell-based
Conditions: concentration range at which HIF-1α expression is reduced by 50% vs untreated control
Description: ARPE-19 cells (Human retinal pigment epithelial cells, ATCC CRL-2302) were cultured in DMEM/F12 (LM002-08, Welgene) medium containing 10% fetal bovine serum (FBS, 16000-044, Gibco) in an incubator at 37°C with 5% carbon dioxide. When the cells grew sufficiently, they were cultured in experimental culture dishes for protein isolation and medium supernatant acquisition.
Cells were detached from the culture dish using TrypLE™ Express (Gibco). After centrifugation at 1000 rpm for 3 minutes, the supernatant was removed. The cells were counted and seeded into new culture dishes. Normoxic conditions were maintained by culturing the cells in a 37°C incubator with 5% carbon dioxide, and hypoxic conditions were maintained by culturing the cells in a hypoxic incubator with 1% oxygen, 5% carbon dioxide, and 94% nitrogen gas.
In a disease of macular degeneration, hypoxia is a very important condition, and since the expression of downstream genes is regulated by HIF-1α, a transcription factor that is stabilized in hypoxic conditions, the following experiment was conducted to confirm this.
Mixed hypoxic condition was used for HIF-1α stability experiments, in which hypoxia was induced with 1% oxygen and the stability of HIF-1α was enhanced by treatment with cobalt chloride (CoCl2).
The compounds of each Example were diluted to 0.1 nM, 1 nM, 3 nM, 10 nM, 30 nM, 100 nM, 300 nM, 1 µM, and 10 µM in DMEM/F12 medium without fetal bovine serum, pretreated for 16 hours or 2 hours, and cultured for 1 hour or 24 hours in a mixed hypoxic condition. The cell medium was discarded, and protein lysates were obtained by rapidly treating with protein lysis buffer (RIPA Lysis and Extraction buffer, Thermo Fisher Scientific). LDS (4X Bolt ™ LDS Sample buffer) and reducing agent (10X Bolt ™ Sample Reducing Agent) were added together to the protein lysate, and heated at 70°C for 10 minutes. The lysate was separated by electrophoresis on a 4-12% Bis-Tris gel, transferred to a PVDF membrane, and blocked with 3% BSA (Albumin, Bovine, Fraction V, MPbio). The membrane was incubated overnight at 4°C with a mixture of anti-HIF-1α (ab179483, abcam) and anti-b-actin (MA515739, Invitrogen) antibodies at a ratio of 1:4000. The following day, the membrane was treated with a peroxidase-conjugated secondary antibody for 1 hour at room temperature, and the target protein was expressed using an ECL solution (Clarity ™ Western ECL substrate, Bio-rad) and quantified.
Based on the results of the expression level of HIF-1α in cells treated with compounds diluted from 10 µM to 0.1 nM, the concentration range of the compound at which the expression level of HIF-1α was reduced by 50% or less compared to the untreated control group was derived.

[1] = mixed hypoxic condition (1% oxygen + CoCl2) for 1 hour, read-out: IC50 HIF-1α Hypoxia (1 hour)
[2] = values marked * in the table, mixed hypoxic condition (1% oxygen + CoCl2) for 24 hours, read-out: IC50 HIF-1α, Hypoxia(24h)

| Compound | DC50 [1] [µM] | DC50 [2] [µM] |
| --- | --- | --- |
| Cn1cc(-c2cccc(C3(NC(=O)c4ncnc5nc(C6CCCC6)[nH]c45)CC3)c2)cn1 [Example 6, 8-Cyclopentyl-N-(1-(3-(1-methyl-1H-pyrazol-4-yl)phenyl)cyclopropyl)-7H-purine-6-carboxamide] | 0.1 to 1 |  |
| O=C(NCc1cc(F)cc(Br)c1)c1ncnc2nc(C3CCCC3)[nH]c12 [Example 14, N-(3-bromo-5-fluorobenzyl)-8-cyclopentyl-7H-purine-6-carboxamide] | 0.1 to 1 |  |
| C[Si](C)(C)CCOCn1c(C2CCCC2)nc2ncnc(C(=O)NCc3cc(F)cc(-c4cnn(-c5cccc(C#N)c5)c4)c3)c21 [Example 22, N-(3-(1-(3-cyanophenyl)-1H-pyrazol-4-yl)-5-fluorobenzyl)-8-cyclopentyl-7-((2-(trimethylsilyl)ethoxy)methyl)-7H-purine-6-carboxamide] | 0.1 to 1 |  |
| Cn1c(C2CCCC2)nc2ncnc(C(=O)NCc3cc(F)cc(-c4cnn(-c5ccc(F)cc5)c4)c3)c21 [Example 55, 8-Cyclopentyl-N-(3-fluoro-5-(1-(4-fluorophenyl)-1H-pyrazol-4-yl)benzyl)-7-methyl-7H-purine-6-carboxamide] | 0.1 to 1 |  |
| O=C(NCc1cc(F)cc(-c2cnn(-c3ccc(F)cc3)c2)c1)c1nc(Cl)nc2nc(C3CCCC3)[nH]c12 [Example 61, 2-Chloro-8-cyclopentyl-N-(3-fluoro-5-(1-(4-fluorophenyl)-1H-pyrazol-4-yl)benzyl)-7H-purine-6-carboxamide] | 0.1 to 1 |  |
| Cn1cc(-c2cc(F)cc(CNC(=O)c3ncnc4nc([C@@H]5CCCN5)[nH]c34)c2)cn1 [Example 62, (S)-N-(3-fluoro-5-(1-methyl-1H-pyrazol-4-yl)benzyl)-8-(pyrrolidin-2-yl)-7H-purine-6-carboxamide hydrochloride] | 1 to 10 |  |
| Cn1cc(-c2cc(F)cc(CNC(=O)c3ncnc4nc([C@H]5CCCN5C(=O)OCc5ccccc5)[nH]c34)c2)cn1 [Example 64, Benzyl (R)-2-(6-((3-fluoro-5-(1-methyl-1H-pyrazol-4-yl)benzyl)carbamoyl)-7H-purin-8-yl)pyrrolidine-1-carboxylate] | 1 to 10 |  |
| Cn1cc(-c2cc(F)cc(CNC(=O)c3ncnc4nc([C@H]5CCCN5)[nH]c34)c2)cn1 [Example 65, (R)-N-(3-fluoro-5-(1-methyl-1H-pyrazol-4-yl)benzyl)-8-(pyrrolidin-2-yl)-7H-purine-6-carboxamide hydrochloride] | 1 to 10 |  |
| CC(C)N1CCC[C@H]1c1nc2ncnc(C(=O)NCc3cc(F)cc(-c4cnn(C)c4)c3)c2[nH]1 [Example 67, (S)-N-(3-fluoro-5-(1-methyl-1H-pyrazol-4-yl)benzyl)-8-(1-isopropylpyrrolidin-2-yl)-7H-purine-6-carboxamide] | 1 to 10 |  |
| CN1CCC[C@@H]1c1nc2ncnc(C(=O)NCc3cccc(F)c3)c2[nH]1 [Example 68, (R)-N-(3-fluorobenzyl)-8-(1-methylpyrrolidin-2-yl)-7H-purine-6-carboxamide] | 1 to 10 |  |
| Cn1cc(-c2cc(F)cc(CNC(=O)c3ncnc4nc(C5CCN(C(=O)OCc6ccccc6)CC5)[nH]c34)c2)cn1 [Example 69, Benzyl 4-(6-((3-fluoro-5-(1-methyl-1H-pyrazol-4-yl)benzyl)carbamoyl)-7H-purin-8-yl)piperidine-1-carboxylate] | 0.1 to 1 |  |
| Cn1cc(-c2cc(F)cc(CNC(=O)c3ncnc4nc(C5CCNCC5)[nH]c34)c2)cn1 [Example 70, N-(3-fluoro-5-(1-methyl-1H-pyrazol-4-yl)benzyl)-8-(piperidin-4-yl)-7H-purine-6-carboxamide hydrochloride] | 0.1 to 1 |  |
| CN1CCC(c2nc3ncnc(C(=O)NCc4cc(F)cc(-c5cnn(C)c5)c4)c3[nH]2)CC1 [Example 71, N-(3-fluoro-5-(1-methyl-1H-pyrazol-4-yl)benzyl)-8-(1-methylpiperidin-4-yl)-7H-purine-6-carboxamide] | 1 to 10 |  |
| Cn1cc(-c2cc(F)cc(CNC(=O)c3ncnc4nc(CNC(=O)OCc5ccccc5)[nH]c34)c2)cn1 [Example 72, Benzyl ((6-((3-fluoro-5-(1-methyl-1H-pyrazol-4-yl)benzyl)carbamoyl)-7H-purin-8-yl)methyl)carbamate] | 1 to 10 |  |
| Cn1cc(-c2cc(F)cc(CNC(=O)c3ncnc4nc(CN)[nH]c34)c2)cn1 [Example 73, 8-(Aminomethyl)-N-(3-fluoro-5-(1-methyl-1H-pyrazol-4-yl)benzyl)-7H-purine-6-carboxamide] | 1 to 10 |  |
| Cn1cc(-c2cc(F)cc(CNC(=O)c3ncnc4nc[nH]c34)c2)cn1 [Example 74, N-(3-fluoro-5-(1-methyl-1H-pyrazol-4-yl)benzyl)-7H-purine-6-carboxamide] | 1 to 10 |  |
| Cn1cc(-c2cc(F)cc(CNC(=O)c3ncnc4nc(C5CCN(C(=O)OCc6ccccc6)C5)[nH]c34)c2)cn1 (stereo not drawn) [Example 75, Benzyl 3-(6-((3-fluoro-5-(1-methyl-1H-pyrazol-4-yl)benzyl)carbamoyl)-7H-purin-8-yl)pyrrolidine-1-carboxylate] | 0.1 to 1 |  |
| Cn1cc(-c2cc(F)cc(CNC(=O)c3ncnc4nc(C5CCNC5)[nH]c34)c2)cn1 (stereo not drawn) [Example 76, N-(3-fluoro-5-(1-methyl-1H-pyrazol-4-yl)benzyl)-8-(pyrrolidin-3-yl)-7H-purine-6-carboxamide hydrochloride] | 1 to 10 |  |
| CN1CCC(c2nc3ncnc(C(=O)NCc4cc(F)cc(-c5cnn(C)c5)c4)c3[nH]2)C1 (stereo not drawn) [Example 79, N-(3-fluoro-5-(1-methyl-1H-pyrazol-4-yl)benzyl)-8-(1-methylpyrrolidin-3-yl)-7H-purine-6-carboxamide] | 1 to 10 |  |
| O=C(NCc1cc(F)cc(-c2cnn(-c3ccc(F)cc3)c2)c1)c1ncnc2nc(C3CCOC3)[nH]c12 (stereo not drawn) [Example 89, N-(3-fluoro-5-(1-(4-fluorophenyl)-1H-pyrazol-4-yl)benzyl)-8-(tetrahydrofuran-3-yl)-7H-purine-6-carboxamide] |  | 0.1 to 1 |
| C[C@@H](NC(=O)c1ncnc2nc(C3CCCC3)[nH]c12)c1cccc(-c2cnn(-c3ccc(F)cc3)c2)c1 [Example 90, (R)-8-cyclopentyl-N-(1-(3-(1-(4-fluorophenyl)-1H-pyrazol-4-yl)phenyl)ethyl)-7H-purine-6-carboxamide] |  | 0.1 to 1 |
| C[C@H](NC(=O)c1ncnc2nc(C3CCCC3)[nH]c12)c1cccc(-c2cnn(-c3ccc(F)cc3)c2)c1 [Example 91, (S)-8-cyclopentyl-N-(1-(3-(1-(4-fluorophenyl)-1H-pyrazol-4-yl)phenyl)ethyl)-7H-purine-6-carboxamide] |  | 1 to 10 |
| O=C(NCCc1cccc(-c2cnn(-c3ccc(F)cc3)c2)c1)c1ncnc2nc(C3CCCC3)[nH]c12 [Example 94, 8-Cyclopentyl-N-(3-(1-(4-fluorophenyl)-1H-pyrazol-4-yl)phenethyl)-7H-purine-6-carboxamide] |  | 0.1 to 1 |
| O=C(NCc1ccc(F)c(-c2cnn(-c3ccc(F)cc3)c2)c1)c1ncnc2nc(C3CCCC3)[nH]c12 [Example 96, 8-Cyclopentyl-N-(4-fluoro-3-(1-(4-fluorophenyl)-1H-pyrazol-4-yl)benzyl)-7H-purine-6-carboxamide] |  | 0.1 to 1 |
